Assay results reported in patent US20160193206A1, “BET-PROTEIN-INHIBITING DIHYDROPYRIDOPYRAZINONES” (BAYER PHARMA AKTIENGESELLSCHAFT, priority 2012, published 2016).

How the values were obtained:
[1] = biological target: T1, BRD4 bromo domain 1 [BRD4(1)] (Homo sapiens, UniProt O60885); assay: BRD4(1)/acetylated peptide H4 binding assay (TR-FRET); settings: inhibition of interaction between His6-tagged BRD4(1) (amino acids 67-152) and acetylated histone H4 peptide
T1 construct: N-terminally His6-tagged BRD4(1) (amino acids 67-152); made in house; host or cells: E. coli
Source text: (§1) Protein-Protein Interaction Assay: BRD4/Acetylated Peptide H4 Binding Assay
1. Assay Description for BRD4 Bromo Domain 1 [BRD4(1)]
To assess the BRD4(1) binding strength of the substances described in this application, the ability thereof to inhibit the interaction between BRD4(1) and acetylated histone H4 in a dose-dependent manner was quantified.
(§2) For this purpose, a time-resolved fluorescence resonance energy transfer (TR-FRET) assay was used, which measures the binding between N-terminally His6-tagged BRD4(1) (amino acids 67-152) and a synthetic acetylated histone H4 (Ac-H4) peptide with sequence GRGK(Ac)GGK(Ac)GLGK(Ac)GGAK(Ac)RHGSGSK-biotin. The recombinant BRD4(1) protein produced in-house according to Filippakopoulos et al., Cell, 2012, 149:214-231 was expressed in E. coli and purified by means of (Ni-NTA) affinity and (Sephadex G-75) size exclusion chromatography. The Ac-H4 peptide can be purchased, for example, from Biosyntan (Berlin, Germany).
(§3) In the assay, typically 11 different concentrations of each substance (0.1 nM, 0.33 nM, 1.1 nM, 3.8 nM, 13 nM, 44 nM, 0.15 μM, 0.51 μM, 1.7 μM, 5.9 μM and 20 μM) were analysed as duplicates on the same microtitre plate. For this purpose, 100-fold concentrated solutions in DMSO were prepared by serial dilutions (1:3.4) of a 2 mM stock solution into a clear, 384-well microtitre plate (Greiner Bio-One, Frickenhausen, Germany). From this, 50 nl were transferred into a black test plate (Greiner Bio-One, Frickenhausen, Germany). The test was started by the addition of 2 μl of a 2.5-fold concentrated BRD4(1) solution (final concentration typically 10 nM in the 5 μl of reaction volume) in aqueous assay buffer [50 mM HEPES pH 7.5, 50 mM sodium chloride (NaCl), 0.25 mM CHAPS and 0.05% serum albumin (BSA)] to the substances in the test plate. This was followed by a 10-minute incubation step at 22° C. for the pre-equilibration of putative complexes between BRD4(1) and the substances.
(§4) The mixture was then incubated in the dark at 22° C. for one hour and then at 4° C. for at least 3 hours and for no longer than overnight. The formation of BRD4(1)/Ac-H4 complexes was determined by the measurement of the resonance energy transfer from the streptavidin-Eu cryptate to the anti-6His-XL665 antibody present in the reaction. For this purpose, the fluorescence emission was measured at 620 nm and 665 nm after excitation at 330-350 nm in a TR-FRET measuring instrument, for example a Rubystar or Pherastar (both from BMG Lab Technologies, Offenburg, Germany) or a Viewlux (Perkin-Elmer). The ratio of the emissions at 665 nm and at 622 nm was taken as an indicator of the amount of BRD4(1)/Ac-H4 complexes formed.
(§5) The data (ratios) obtained were normalized, with 0% inhibition corresponding to the mean from the measurements for a set of controls (typically 32 data points) in which all the reagents were present. In these, in place of test substances, 50 nl of DMSO (100%) were used. Inhibition of 100% corresponded to the mean from the measurements for a set of controls (typically 32 data points) in which all the reagents except BRD4(1) were present. The IC50 was determined by regression analysis based on a 4-parameter equation (minimum, maximum, IC50, Hill; Y=max+(min−max)/(1+(X/IC50)Hill).

[2] = biological target: T2, BRD4 bromo domain 2 [BRD4(2)] (Homo sapiens, UniProt O60885); assay: BRD4(2)/acetylated peptide H4 binding assay (TR-FRET); settings: inhibition of interaction between His6-tagged BRD4(2) (amino acids 357-445) and acetylated histone H4 peptide
T2 construct: N-terminally His6-tagged BRD4(2) (amino acids 357-445); made in house; host or cells: E. coli
Source text: as §1
2. Assay Description for BRD4 Bromo Domain 2 [BRD4(2)]
To assess the BRD4(2) binding strength of the substances described in this application, the ability thereof to inhibit the interaction between BRD4(2) and acetylated histone H4 in a dose-dependent manner was quantified.
as §2, with “BRD4(2)” for “BRD4(1)”, “357-445)” for “67-152)”, “SGRGK(Ac)GGK(Ac)GLGK(Ac)GGAK(Ac)RHRKVLRDNGSGSK-biotin.” for “GRGK(Ac)GGK(Ac)GLGK(Ac)GGAK(Ac)RHGSGSK-biotin.”
as §3, with “concentrated BRD4(2)” for “concentrated BRD4(1)”, “typically 100” for “typically 10”, “chloride (NaCl); 50 mM potassium fluoride (KF);” for “chloride (NaCl),”, “between BRD4(2)” for “between BRD4(1)”
as §4, with “BRD4(2)/Ac-H4” for “BRD4(1)/Ac-H4”, “chelate” for “cryptate”
as §5, with “BRD4(2)” for “BRD4(1)”

Structure (SMILES) | IC50 [1] [nM] | IC50 [2] [nM]
COc1cc(C(=O)NC2CCN(C)CC2)ccc1Nc1ccc2c(n1)N(C1CCCCC1)[C@H](C)C(=O)N2C [Example 12, 4-{[(3R)-4-Cyclohexyl-1,3-dimethyl-2-oxo-1,2,3,4-tetrahydropyrido[2,3-b]pyrazin-6-yl]amino}-3-methoxy-N-(1-methylpiperidin-4-yl)benzamide] | 104 | 111
CC(C)N1CCN(S(=O)(=O)c2ccc(Nc3ccc4c(n3)N(C3CCOCC3)[C@H](C)C(=O)N4C)cc2)CC1 [Example 16, (3R)-1,3-Dimethyl-6-[(4-{[4-(propan-2-yl)piperazin-1-yl]sulphonyl}phenyl)amino]-4-(tetrahydro-2H-pyran-4-yl)-3,4-dihydropyrido[2,3-b]pyrazin-2(1H)-one] | 286 | 212
C[C@@H]1C(=O)N(C)c2ccc(Nc3ccc(S(=O)(=O)N(C)C)cc3)nc2N1C1CCCCC1 [Example 17, 4-{[(3R)-4-Cyclohexyl-1,3-dimethyl-2-oxo-1,2,3,4-tetrahydropyrido[2,3-b]pyrazin-6-yl]amino}-N,N-dimethylbenzenesulphonamide] | 308 | 111
C[C@@H]1C(=O)N(C)c2ccc(Nc3ccc(S(=O)(=O)NCCc4cccnc4)cc3)nc2N1C1CCOCC1 [Example 19, 4-{[(3R)-1,3-dimethyl-2-oxo-4-(tetrahydro-2H-pyran-4-yl)-1,2,3,4-tetrahydropyrido[2,3-b]pyrazin-6-yl]amino}-N-[2-(pyridin-3-yl)ethyl]benzene-sulphonamide] | 219 | 185
COc1cc(C(=O)N2CCN(C(C)C)CC2)ccc1Nc1ccc2c(n1)N(C1CCCCC1)[C@H](C)C(=O)N2C [Example 28, (3R)-4-Cyclohexyl-6-[(2-methoxy-4-{[4-(propan-2-yl)piperazin-1-yl]carbonyl}phenyl)amino]-1,3-dimethyl-3,4-dihydropyrido[2,3-b]pyrazin-2(1H)-one] | 195 | 116
C[C@@H]1C(=O)N(C)c2ccc(Nc3ccc(C(=O)N4CC5(CCS5(=O)=O)C4)cc3)nc2N1C1CCCCC1 [Example 29, (3R)-4-Cyclohexyl-6-({4-[(1,1-dioxido-1-thia-6-azaspiro[3.3]hept-6-yl)carbonyl]phenyl}amino)-1,3-dimethyl-3,4-dihydropyrido[2,3-b]pyrazin-2(1H)-one] | 242 | 149
CC(C)N1CCN(C(=O)c2ccc(Nc3ccc4c(n3)N(C3CCCCC3)[C@H](C)C(=O)N4C)cc2)CC1 [Example 31, (3R)-4-Cyclohexyl-1,3-dimethyl-6-[(4-{[4-(propan-2-yl)piperazin-1-yl]carbonyl}phenyl)amino]-3,4-dihydropyrido[2,3-b]pyrazin-2(1H)-one] | 241 | 108
COc1cc(C(=O)N2CC3(COC3)C2)ccc1Nc1ccc2c(n1)N(C1CCCCCC1)[C@H](C)C(=O)N2C [Example 32, (3R)-4-Cycloheptyl-6-{[2-methoxy-4-(2-oxa-6-azaspiro[3.3]hept-6-ylcarbonyl)phenyl]amino}-1,3-dimethyl-3,4-dihydropyrido[2,3-b]pyrazin-2(1H)-one] | 376 | 77
C[C@@H]1C(=O)N(C)c2ccc(Nc3ccc(C(=O)N4CC5(CCS5(=O)=O)C4)cc3)nc2N1C1CCCCCC1 [Example 33, (3R)-4-Cycloheptyl-6-({4-[(1,1-dioxido-1-thia-6-azaspiro[3.3]hept-6-yl)carbonyl]phenyl}amino)-1,3-dimethyl-3,4-dihydropyrido[2,3-b]pyrazin-2(1H)-one] | 329 | 80
C[C@@H]1C(=O)N(C)c2ccc(Nc3ccc(C(=O)NCc4ccccn4)cc3)nc2N1C1CCOCC1 [Example 35, 4-{[(3R)-1,3-Dimethyl-2-oxo-4-(tetrahydro-2H-pyran-4-yl)-1,2,3,4-tetrahydropyrido[2,3-b]pyrazin-6-yl]amino}-N-(pyridin-2-ylmethyl)benzamide] | 119 | 237
Cc1cc(C(=O)N2CCN(C)CC2)ccc1Nc1ccc2c(n1)N(C1CCOCC1)[C@H](C)C(=O)N2C [Example 36, (3R)-1,3-Dimethyl-6-({2-methyl-4-[(4-methylpiperazin-1-yl)carbonyl]phenyl}amino)-4-(tetrahydro-2H-pyran-4-yl)-3,4-dihydropyrido[2,3-b]pyrazin-2(1H)-one] | 257 | 245
COc1cc(C(=O)NC2CCN(C(C)=O)CC2)ccc1Nc1ccc2c(n1)N(C1CCCCC1)[C@H](C)C(=O)N2C [Example 39, N-(1-Acetylpiperidin-4-yl)-4-{[(3R)-4-cyclohexyl-1,3-dimethyl-2-oxo-1,2,3,4-tetrahydropyrido[2,3-b]pyrazin-6-yl]amino}-3-methoxybenzamide] | 329 | 145
COc1cc(C(=O)N2CCN(C(C)C)CC2)ccc1Nc1ccc2c(n1)N(C1CCCCCC1)[C@H](C)C(=O)N2C [Example 40, (3R)-4-Cycloheptyl-6-[(2-methoxy-4-{[4-(propan-2-yl)piperazin-1-yl]carbonyl}phenyl)amino]-1,3-dimethyl-3,4-dihydropyrido[2,3-b]pyrazin-2(1H)-one] | 295 | 161
